For 20 compounds, EC50 results are on record in patent US20190152957A1, “PYRIDIN-3-YL ACETIC ACID DERIVATIVES AS INHIBITORS OF HUMAN IMMUNODEFICIENCY VIRUS REPLICATION” (ViiV HEALTHCARE UK (NO.5) LIMITED, priority 2016, published 2019).

The test system of the first assay is recombinant NL-RLuc virus (HIV NL4-3 with Renilla Luciferase gene) in MT-2 cells. Kind of assay: Inhibition of HIV replication (NL-RLuc virus, luciferase readout in MT-2 cells). The format is cell-based. The conditions noted are these: MT2, 120 h, read-out: Activity. The text has this:
Inhibition of HIV Replication:
A recombinant NL-RLuc proviral clone was constructed in which a section of the nef gene from NL4-3 was replaced with the Renilla Luciferase gene. This virus is fully infectious and can undergo multiple cycles of replication in cell culture. In addition, the luciferous reporter provides a simple and easy method for quantitating the extent of virus growth and consequently, the antiviral activity of test compounds. The plasmid pNLRLuc contains the proviral NL-Rluc DNA cloned into pUC18 at the PvuII site. The NL-RLuc virus was prepared by transfection of 293T cells with the plasmid pNLRLuc. Transfections were performed using the LipofectAMINE PLUS kit from Invitrogen (Carlsbad, Calif.) according to the manufacturer and the virus generated was titered in MT-2 cells. For susceptibility analyses, the titrated virus was used to infect MT-2 cells in the presence of compound, and after 5 days of incubation, cells were processed and quantitated for virus growth by the amount of expressed luciferase. Assay media was RPMI 1640 supplemented with 10% heat inactivated fetal bovine serum (FBS), 100 units/ml penicillin G/100 units/ml streptomycin, 10 mM HEPES buffer pH 7.55 and 2 mM L-glutamine. The results from at least 2 experiments were used to calculate the EC50 values. Luciferase was quantitated using the Dual Luciferase kit from Promega (Madison, Wis.). Susceptibility of viruses to compounds was determined by incubation in the presence of serial dilutions of the compound. The 50% effective concentration (EC50) was calculated by using the exponential form of the median effect equation where (Fa)=1/[1+(ED50/drug conc.)^m](Johnson V A, Byington R T. Infectivity Assay. In Techniques in HIV Research. ed. Aldovini A, Walker BD. 71-76. New York: Stockton Press. 1990). Activity equal to A refers to a compound having an EC50≤100 nM, while B and C denote compounds having an EC50 between 100 nM and 1 uM (B) or >1 uM (C).
In the case of `Cc1nc(C)c([C@H](OC(C)(C)C)C(=O)O)c(N2CCC(C)(C)CC2)c1-c1ccc2c(c1)CCN(Cc1ccncc1)C2` [Compound 12, (S)-2-(tert-butoxy)-2-(4-(4,4-dimethylpiperidin-1-yl)-2,6-dimethyl-5-(2-(pyridin-4-ylmethyl)-1,2,3,4-tetrahydroisoquinolin-6-yl)pyridin-3-yl)acetic acid], the EC50 is less than 0.1 µM.
On the same count and under the same terms, the figure for `Cc1nc(C)c([C@H](OC(C)(C)C)C(=O)O)c(N2CCC(C)(C)CC2)c1-c1ccc2c(c1)CCN(CC1CCCOC1)C2` (stereo partly drawn) [Compound 1, (2S)-2-(tert-butoxy)-2-(4-(4,4-dimethylpiperidin-1-yl)-2,6-dimethyl-5-(2-((tetrahydro-2H-pyran-3-yl)methyl)-1,2,3,4-tetrahydroisoquinolin-6-yl)pyridin-3-yl)acetic acid] is less than 0.1 µM; for `Cc1nc(C)c([C@H](OC(C)(C)C)C(=O)O)c(N2CCC(C)(C)CC2)c1-c1ccc2c(c1)CCN(Cc1ncco1)C2` [Compound 37, (S)-2-(tert-butoxy)-2-(4-(4,4-dimethylpiperidin-1-yl)-2,6-dimethyl-5-(2-(oxazol-2-ylmethyl)-1,2,3,4-tetrahydroisoquinolin-6-yl)pyridin-3-yl)acetic acid] it is less than 0.1 µM.
Same read-out and setting: the figure for `Cc1cc(CN2CCc3cc(-c4c(C)nc(C)c([C@H](OC(C)(C)C)C(=O)O)c4N4CCC(C)(C)CC4)ccc3C2)no1` [Compound 13, (S)-2-(tert-butoxy)-2-(4-(4,4-dimethylpiperidin-1-yl)-2,6-dimethyl-5-(2-((5-methylisoxazol-3-yl)methyl)-1,2,3,4-tetrahydroisoquinolin-6-yl)pyridin-3-yl)acetic acid] is less than 0.1 µM; for `Cc1nc(C)c([C@H](OC(C)(C)C)C(=O)O)c(N2CCC(C)(C)CC2)c1-c1ccc2c(c1)CCN(CC1CCCCC1)C2` [Compound 5, (S)-2-(tert-butoxy)-2-(5-(2-(cyclohexylmethyl)-1,2,3,4-tetrahydroisoquinolin-6-yl)-4-(4,4-dimethylpiperidin-1-yl)-2,6-dimethylpyridin-3-yl)acetic acid] it is less than 0.1 µM.
For the compound `Cc1nc(CN2CCc3cc(-c4c(C)nc(C)c([C@H](OC(C)(C)C)C(=O)O)c4N4CCC(C)(C)CC4)ccc3C2)c[nH]1` [Compound 43, (S)-2-(tert-butoxy)-2-(4-(4,4-dimethylpiperidin-1-yl)-2,6-dimethyl-5-(2-((2-methyl-1H-imidazol-4-yl)methyl)-1,2,3,4-tetrahydroisoquinolin-6-yl)pyridin-3-yl)acetic acid], the EC50 is less than 0.1 µM.
Take `Cc1nc(C)c([C@H](OC(C)(C)C)C(=O)O)c(N2CCC(C)(C)CC2)c1-c1ccc2c(c1)CCN(Cc1cc(-c3ccccc3)on1)C2` [Compound 25, (S)-2-(tert-butoxy)-2-(4-(4,4-dimethylpiperidin-1-yl)-2,6-dimethyl-5-(2-((5-phenylisoxazol-3-yl)methyl)-1,2,3,4-tetrahydroisoquinolin-6-yl)pyridin-3-yl)acetic acid]: the EC50 is less than 0.1 µM.
As for `Cc1nc(CN2CCc3cc(-c4c(C)nc(C)c([C@H](OC(C)(C)C)C(=O)O)c4N4CCC(C)(C)CC4)ccc3C2)c(C)o1` [Compound 18, (S)-2-(tert-butoxy)-2-(5-(2-((2,5-dimethyloxazol-4-yl)methyl)-1,2,3,4-tetrahydroisoquinolin-6-yl)-4-(4,4-dimethylpiperidin-1-yl)-2,6-dimethylpyridin-3-yl)acetic acid], the EC50 was less than 0.1 µM.
Same read-out and setting: the figure for `Cc1nn(C)c(Cl)c1CN1CCc2cc(-c3c(C)nc(C)c([C@H](OC(C)(C)C)C(=O)O)c3N3CCC(C)(C)CC3)ccc2C1` [Compound 54, (S)-2-(tert-butoxy)-2-(5-(2-((5-chloro-1,3-dimethyl-1H-pyrazol-4-yl)methyl)-1,2,3,4-tetrahydroisoquinolin-6-yl)-4-(4,4-dimethylpiperidin-1-yl)-2,6-dimethylpyridin-3-yl)acetic acid] is less than 0.1 µM; for `COc1ncc(CN2CCc3cc(-c4c(C)nc(C)c([C@H](OC(C)(C)C)C(=O)O)c4N4CCC(C)(C)CC4)ccc3C2)cn1` [Compound 33, (S)-2-(tert-butoxy)-2-(4-(4,4-dimethylpiperidin-1-yl)-5-(2-((2-methoxypyrimidin-5-yl)methyl)-1,2,3,4-tetrahydroisoquinolin-6-yl)-2,6-dimethylpyridin-3-yl)acetic acid] it is less than 0.1 µM.
Same read-out and setting: the figure for `Cc1nc(C)c([C@H](OC(C)(C)C)C(=O)O)c(N2CCC(C)(C)CC2)c1-c1ccc2c(c1)CCN(Cc1c[nH]nn1)C2` [Compound 27, (S)-2-(5-(2-((1H-1,2,3-triazol-4-yl)methyl)-1,2,3,4-tetrahydroisoquinolin-6-yl)-4-(4,4-dimethylpiperidin-1-yl)-2,6-dimethylpyridin-3-yl)-2-(tert-butoxy)acetic acid] is 0.1 to 1 µM.
Regarding `Cc1n[nH]cc1CN1CCc2cc(-c3c(C)nc(C)c([C@H](OC(C)(C)C)C(=O)O)c3N3CCC(C)(C)CC3)ccc2C1` [Compound 53, (S)-2-(tert-butoxy)-2-(4-(4,4-dimethylpiperidin-1-yl)-2,6-dimethyl-5-(2-((3-methyl-1H-pyrazol-4-yl)methyl)-1,2,3,4-tetrahydroisoquinolin-6-yl)pyridin-3-yl)acetic acid], the EC50 was less than 0.1 µM.
On to `Cc1nc(C)c([C@H](OC(C)(C)C)C(=O)O)c(N2CCC(C)(C)CC2)c1-c1ccc2c(c1)CCN(Cc1nnn[nH]1)C2` [Compound 46, (S)-2-(5-(2-((1H-tetrazol-5-yl)methyl)-1,2,3,4-tetrahydroisoquinolin-6-yl)-4-(4,4-dimethylpiperidin-1-yl)-2,6-dimethylpyridin-3-yl)-2-(tert-butoxy)acetic acid], for which the EC50 is less than 0.1 µM.
The same measure, in the same setting: the figure for `CCn1cc(CN2CCc3cc(-c4c(C)nc(C)c([C@H](OC(C)(C)C)C(=O)O)c4N4CCC(C)(C)CC4)ccc3C2)c(C)n1` [Compound 22, (S)-2-(tert-butoxy)-2-(4-(4,4-dimethylpiperidin-1-yl)-5-(2-((1-ethyl-3-methyl-1H-pyrazol-4-yl)methyl)-1,2,3,4-tetrahydroisoquinolin-6-yl)-2,6-dimethylpyridin-3-yl)acetic acid] is less than 0.1 µM; for `Cc1nc(C)c([C@H](OC(C)(C)C)C(=O)O)c(N2CCC(C)(C)CC2)c1-c1ccc2c(c1)CCN(Cc1cccnn1)C2` [Compound 36, (S)-2-(tert-butoxy)-2-(4-(4,4-dimethylpiperidin-1-yl)-2,6-dimethyl-5-(2-(pyridazin-3-ylmethyl)-1,2,3,4-tetrahydroisoquinolin-6-yl)pyridin-3-yl)acetic acid] it is less than 0.1 µM; for `Cc1nc(C)c([C@H](OC(C)(C)C)C(=O)O)c(N2CCC(C)(C)CC2)c1-c1ccc2c(c1)CCN(CC1CC1)C2` [Compound 4, (S)-2-(tert-butoxy)-2-(5-(2-(cyclopropylmethyl)-1,2,3,4-tetrahydroisoquinolin-6-yl)-4-(4,4-dimethylpiperidin-1-yl)-2,6-dimethylpyridin-3-yl)acetic acid] it is less than 0.1 µM.
Still for that read-out and setting: the figure for `Cc1nc(C)c([C@H](OC(C)(C)C)C(=O)O)c(N2CCC(C)(C)CC2)c1-c1ccc2c(c1)CCN(Cc1cnc(-c3ccccc3)[nH]1)C2` [Compound 20, (S)-2-(tert-butoxy)-2-(4-(4,4-dimethylpiperidin-1-yl)-2,6-dimethyl-5-(2-((2-phenyl-1H-imidazol-5-yl)methyl)-1,2,3,4-tetrahydroisoquinolin-6-yl)pyridin-3-yl)acetic acid] is less than 0.1 µM.
Still for that read-out and setting: the figure for `Cc1nc(C)c([C@H](OC(C)(C)C)C(=O)O)c(N2CCC(C)(C)CC2)c1-c1ccc2c(c1)CCN(CC1C[C@@H]3CC[C@H]1C3)C2` (stereo partly drawn) [Compound 2, (2S)-2-(5-(2-((1S,4R)-bicyclo[2.2.1]heptan-2-ylmethyl)-1,2,3,4-tetrahydroisoquinolin-6-yl)-4-(4,4-dimethylpiperidin-1-yl)-2,6-dimethylpyridin-3-yl)-2-(tert-butoxy)acetic acid] is less than 0.1 µM.
Consider `CCOc1ncccc1CN1CCc2cc(-c3c(C)nc(C)c([C@H](OC(C)(C)C)C(=O)O)c3N3CCC(C)(C)CC3)ccc2C1` [Compound 29, (S)-2-(tert-butoxy)-2-(4-(4,4-dimethylpiperidin-1-yl)-5-(2-((2-ethoxypyridin-3-yl)methyl)-1,2,3,4-tetrahydroisoquinolin-6-yl)-2,6-dimethylpyridin-3-yl)acetic acid], for which the EC50 was less than 0.1 µM.
Same read-out and setting: the figure for `CCn1cncc1CN1CCc2cc(-c3c(C)nc(C)c([C@H](OC(C)(C)C)C(=O)O)c3N3CCC(C)(C)CC3)ccc2C1` [Compound 15, (S)-2-(tert-butoxy)-2-(4-(4,4-dimethylpiperidin-1-yl)-5-(2-((1-ethyl-1H-imidazol-5-yl)methyl)-1,2,3,4-tetrahydroisoquinolin-6-yl)-2,6-dimethylpyridin-3-yl)acetic acid] is less than 0.1 µM.

Still in this assay, the particulars now being: MT2, 120 h, read-out: EC50 μM.
On to `Cc1nc(C)c([C@H](OC(C)(C)C)C(=O)O)c(N2CCC(C)(C)CC2)c1-c1ccc2c(c1)CCN(CC1CCCOC1)C2` (stereo partly drawn) [Compound 1, (2S)-2-(tert-butoxy)-2-(4-(4,4-dimethylpiperidin-1-yl)-2,6-dimethyl-5-(2-((tetrahydro-2H-pyran-3-yl)methyl)-1,2,3,4-tetrahydroisoquinolin-6-yl)pyridin-3-yl)acetic acid], for which the EC50 was found to be 0.028 µM.
Same read-out and setting: the figure for `Cc1nc(C)c([C@H](OC(C)(C)C)C(=O)O)c(N2CCC(C)(C)CC2)c1-c1ccc2c(c1)CCN(Cc1cc(-c3ccccc3)on1)C2` [Compound 25, (S)-2-(tert-butoxy)-2-(4-(4,4-dimethylpiperidin-1-yl)-2,6-dimethyl-5-(2-((5-phenylisoxazol-3-yl)methyl)-1,2,3,4-tetrahydroisoquinolin-6-yl)pyridin-3-yl)acetic acid] is 0.012 µM; for `COc1ncc(CN2CCc3cc(-c4c(C)nc(C)c([C@H](OC(C)(C)C)C(=O)O)c4N4CCC(C)(C)CC4)ccc3C2)cn1` [Compound 33, (S)-2-(tert-butoxy)-2-(4-(4,4-dimethylpiperidin-1-yl)-5-(2-((2-methoxypyrimidin-5-yl)methyl)-1,2,3,4-tetrahydroisoquinolin-6-yl)-2,6-dimethylpyridin-3-yl)acetic acid] it is 0.008 µM.
For the compound `Cc1n[nH]cc1CN1CCc2cc(-c3c(C)nc(C)c([C@H](OC(C)(C)C)C(=O)O)c3N3CCC(C)(C)CC3)ccc2C1` [Compound 53, (S)-2-(tert-butoxy)-2-(4-(4,4-dimethylpiperidin-1-yl)-2,6-dimethyl-5-(2-((3-methyl-1H-pyrazol-4-yl)methyl)-1,2,3,4-tetrahydroisoquinolin-6-yl)pyridin-3-yl)acetic acid], the EC50 amounted to 0.061 µM.
